Experimental data as given in patent US9388164B2, “Methods of using pyruvate kinase activators” (AGIOS PHARMACEUTICALS, INC, priority 2011, dated 2016).

Assays:
Type in all cases: biochemical
PKR R479H = PKR R479H (Homo sapiens, UniProt P30613, R479H); assay: PKR Mutant Assay, AC50 (R479H)
Method: (§1) • PKR or PKR mutant enzyme solution was diluted in assay buffer. • 2 μL of test compound was added into wells first, and then 180 μL reaction mix was added. • Reactions mixture with test compound was assembled except for ADP, and plates were stored for 60 minutes at room temperature. • 20 uL ADP was added to start reaction at room temperature and reaction progress was measured as changes in absorbance at 340 nm wavelength at room temperature.
(§2) Test Compound Preparation: • Test compound stock was made at 100× concentration in 100% DMSO (10 mM) • 1 to 3 dilutions were made for 11 points (i.e. 50 μl of first concentration added to 100 μl 100% DMSO to yield 3.33 mM, 50 μl of this added to 100 μl DMSO to yield 1.11 mM, and so forth) • 1 to 100 dilution into assay (2 μl in 200 μl) yielded starting concentration of 100 μM, decreasing 3 fold for 11 points.

PKR R532W = PKR R532W (Homo sapiens, UniProt P30613, R532W); assay: PKR Mutant Assay, AC50 (R532W)
Method: as §1, §2

PKR R510Q = PKR R510Q (Homo sapiens, UniProt P30613, R510Q); assay: PKR Mutant Assay, AC50 (R510Q)
Method: as §1, §2

PKR T384W = PKR T384W (Homo sapiens, UniProt P30613); assay: PKR Mutant Assay, AC50 (T384W)
Method: as §1, §2

PKR G364D = PKR G364D (Homo sapiens, UniProt P30613, G364D); assay: PKR Mutant Assay, AC50 (G364D)
Method: as §1, §2

Sequence of PKR R510Q (P30613 whole entry R510Q): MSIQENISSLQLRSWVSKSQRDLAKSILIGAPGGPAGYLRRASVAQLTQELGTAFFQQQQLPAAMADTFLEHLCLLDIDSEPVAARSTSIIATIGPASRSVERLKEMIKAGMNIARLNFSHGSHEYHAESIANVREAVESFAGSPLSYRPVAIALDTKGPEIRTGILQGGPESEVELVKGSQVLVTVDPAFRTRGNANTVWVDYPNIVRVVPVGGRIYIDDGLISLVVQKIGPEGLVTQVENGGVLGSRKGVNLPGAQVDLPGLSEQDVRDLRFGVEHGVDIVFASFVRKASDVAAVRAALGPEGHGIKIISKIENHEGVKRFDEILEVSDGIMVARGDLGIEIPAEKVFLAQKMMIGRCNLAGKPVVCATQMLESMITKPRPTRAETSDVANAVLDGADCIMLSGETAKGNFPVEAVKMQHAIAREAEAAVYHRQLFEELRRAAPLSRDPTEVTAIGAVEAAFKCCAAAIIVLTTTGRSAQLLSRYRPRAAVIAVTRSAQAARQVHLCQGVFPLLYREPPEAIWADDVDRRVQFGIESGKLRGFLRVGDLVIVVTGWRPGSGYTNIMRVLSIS
Sequence of PKR T384W (P30613 whole entry T384M): as the sequence (P30613 whole entry R510Q) above, with T384M, Q510R counted along it
Sequence of PKR R479H (P30613 whole entry R479H): as the sequence (P30613 whole entry R510Q) above, with R479H, Q510R counted along it
Sequence of PKR R532W (P30613 whole entry R532W): as the sequence (P30613 whole entry R510Q) above, with Q510R, R532W counted along it
Sequence of PKR G364D (P30613 whole entry G364D): as the sequence (P30613 whole entry R510Q) above, with G364D, Q510R counted along it

AC50 (PKR R479H): > 500 nM
AC50 (PKR R532W): 101 to 500 nM
AC50 (PKR R510Q): > 500 nM
AC50 (PKR T384W): 101 to 500 nM
AC50 (PKR G364D): > 500 nM
SMILES: O=C(c1ccc(NS(=O)(=O)c2cccc3cccnc23)cc1)N1CC(O)(c2ccccc2)C1 [drawing 106]
